Laboratory results reported in ChEMBL document CHEMBL6078677, “Discovery and optimization of tetrahydroacridine derivatives as a novel class of antibiotics against multidrug-resistant Gram-positive pathogens by targeting type I signal peptidase and disrupting bacterial membrane” (Eur J Med Chem, 2025).
In brackets after ≈: the same amount, converted by molar mass. Activity calls are given as the source filed them. The calls are words filed in the database; no cut-off is given here.

Key:
Staphylococcus aureus [1] = assay: Antimicrobial activity against Staphylococcus aureus ATCC 29213 assessed as inhibition of visible growth of bacteria incubated for 20 hrs by broth microdilution method; type: functional
Enterococcus faecium [2] = assay: Antimicrobial activity against Enterococcus faecium QF31 harboring erythromycin resistance rRNA methylase B and chloramphenicol-florfenicol resistance methylase assessed as inhibition of visible growth of bacteria incubated for 20 hrs by broth microdilution method; type: functional
Enterococcus faecalis [3] = assay: microbe, parasite or virus in culture; type: functional; details: SF23-1, time 20 hrs
Description: Antimicrobial activity against Enterococcus faecalis SF23-1 harboring erythromycin-resistance rRNA methylase B, tetracycline efflux protein L and chloramphenicol-florfenicol resistance methylase assessed as inhibition of visible growth of bacteria incubated for 20 hrs by broth microdilution method

Streptococcus suis [4] = assay: Antimicrobial activity against Streptococcus suis P1/7 assessed as inhibition of visible growth of bacteria incubated for 20 hrs by broth microdilution method; type: functional
Staphylococcus aureus [5] = assay: Antimicrobial activity against Staphylococcus aureus YZSA-15 harboring erythromycin resistance rRNA methylase C and vancomycin resistance locus assessed as inhibition of visible growth of bacteria incubated for 20 hrs by broth microdilution method; type: functional
Staphylococcus aureus [6] = assay: Antimicrobial activity against Staphylococcus aureus YZSA-21 harboring erythromycin resistance rRNA methylase C assessed as inhibition of visible growth of bacteria incubated for 20 hrs by broth microdilution method; type: functional
Staphylococcus aureus [7] = assay: Antimicrobial activity against Staphylococcus aureus YZSA-24 harboring erythromycin resistance rRNA methylase C and methicillin resistance gene resistance locus assessed as inhibition of visible growth of bacteria incubated for 20 hrs by broth microdilution method; type: functional
Staphylococcus aureus [8] = assay: microbe, parasite or virus in culture; type: functional; details: M92-1, time 20 hrs
Description: Antimicrobial activity against Staphylococcus aureus M92-1 harboring erythromycin resistance rRNA methylase B, tetracycline efflux protein L and oxazolidinone-phenicol transferable resistance gene assessed as inhibition of visible growth of bacteria incubated for 20 hrs by broth microdilution method

Staphylococcus aureus [9] = assay: microbe, parasite or virus in culture; type: functional; details: M147-2, time 20 hrs
Description: Antimicrobial activity against Staphylococcus aureus M147-2 harboring erythromycin resistance rRNA methylase B, tetracycline efflux protein L and chloramphenicol-florfenicol resistance methylase assessed as inhibition of visible growth of bacteria incubated for 20 hrs by broth microdilution method

Enterococcus faecium [10] = assay: Antimicrobial activity against Enterococcus faecium HFY01 assessed as inhibition of visible growth of bacteria incubated for 20 hrs by broth microdilution method; type: functional
Enterococcus faecium [11] = assay: Antimicrobial activity against Enterococcus faecium MC38 harboring erythromycin resistance rRNA methylase B and oxazolidinone-phenicol transferable resistance gene assessed as inhibition of visible growth of bacteria incubated for 20 hrs by broth microdilution method; type: functional
Enterococcus faecalis [12] = assay: Antimicrobial activity against Enterococcus faecalis JH2-2 assessed as inhibition of visible growth of bacteria incubated for 20 hrs by broth microdilution method; type: functional
Enterococcus faecalis [13] = assay: Antimicrobial activity against Enterococcus faecalis ES01 harboring erythromycin-resistance rRNA methylase B and vanB-type vancomycin-resistance locus assessed as inhibition of visible growth of bacteria incubated for 20 hrs by broth microdilution method; type: functional
Enterococcus faecalis [14] = assay: Antimicrobial activity against Enterococcus faecalis J2 harboring erythromycin-resistance rRNA methylase B and oxazolidinone phenicol transferable resistance gene assessed as inhibition of visible growth of bacteria incubated for 20 hrs by broth microdilution method; type: functional
Streptococcus suis [15] = assay: microbe, parasite or virus in culture; type: functional; details: SH0918, time 20 hrs
Description: Antimicrobial activity against Streptococcus suis SH0918 harboring erythromycin-resistance rRNA methylase B, tetracycline efflux protein O and oxazolidinone phenicol transferable resistance gene assessed as inhibition of visible growth of bacteria incubated for 20 hrs by broth microdilution method

Streptococcus pyogenes = assay: Antimicrobial activity against Streptococcus pyogenes DL02 harboring erythromycin-resistance rRNA methylase B assessed as inhibition of visible growth of bacteria incubated for 20 hrs by broth microdilution method; type: functional
Streptococcus agalactiae = assay: Antimicrobial activity against Streptococcus agalactiae DL03 harboring erythromycin-resistance rRNA methylase B assessed as inhibition of visible growth of bacteria incubated for 20 hrs by broth microdilution method; type: functional
Escherichia coli = assay: Antimicrobial activity against Escherichia coli ATCC 25922 assessed as inhibition of visible growth of bacteria incubated for 20 hrs by broth microdilution method; type: functional
Salmonella enteritidis = assay: Antimicrobial activity against Salmonella enteritis S1 assessed as inhibition of visible growth of bacteria incubated for 20 hrs by broth microdilution method; type: functional, Salmonella enterica subsp. enterica serovar Enteritidis; details: Salmonella enterica
Klebsiella pneumoniae = assay: Antimicrobial activity against Klebsiella pneumoniae 9-1 assessed as inhibition of visible growth of bacteria incubated for 20 hrs by broth microdilution method; type: functional
Acinetobacter baumannii [16] = assay: Antimicrobial activity against Acinetobacter baumannii AB11 assessed as inhibition of visible growth of bacteria incubated for 20 hrs by broth microdilution method; type: functional
Acinetobacter baumannii [17] = assay: Antimicrobial activity against Acinetobacter baumannii 7979 assessed as inhibition of visible growth of bacteria incubated for 20 hrs by broth microdilution method; type: functional
Pseudomonas aeruginosa [18] = assay: Antimicrobial activity against Pseudomonas aeruginosa PA01 assessed as inhibition of visible growth of bacteria incubated for 20 hrs by broth microdilution method; type: functional
Pseudomonas aeruginosa [19] = assay: Antimicrobial activity against Pseudomonas aeruginosa PA14 assessed as inhibition of visible growth of bacteria incubated for 20 hrs by broth microdilution method; type: functional
Staphylococcus aureus [20] = assay: Bactericidal activity against Staphylococcus aureus ATCC 29213 assessed as decrease in bacterial number measured within 12 hrs by time-kill kinetics assay; type: functional, organism-based
Staphylococcus aureus [21] = assay: Bactericidal activity against Staphylococcus aureus ATCC 29213 assessed as bacterial eradication at 4 times of MIC measured after 24 hrs by time-kill kinetics assay relative to control; type: functional
Staphylococcus aureus [22] = assay: Bactericidal activity against Staphylococcus aureus ATCC 29213 assessed as bacterial killing at 8 times of MIC measured within 12 hrs by time-kill kinetics assay; type: functional, organism-based
Staphylococcus aureus [23] = assay: Drug resistance, ratio of MIC for Staphylococcus aureus ATCC 29213 measured after 28 days to MIC for Staphylococcus aureus ATCC 29213 measured after 20 hrs; type: functional
[24] = Cytotoxicity against human HEp-2 cells assessed as cell viability at 16 times of MIC incubated for 48 hrs by CCK8 assay (reference value: 100 %); type: toxicity, cell-based; details: read-out: Activity
[25] = Cytotoxicity against human HEp-2 cells assessed as cell viability at 8 times of MIC incubated for 48 hrs by CCK8 assay (reference value: 100 %); type: toxicity, cell-based; details: read-out: Activity
[26] = Cytotoxicity against human HEp-2 cells assessed as cell viability at 4 times of MIC incubated for 48 hrs by CCK8 assay (reference value: 100 %); type: toxicity, cell-based; details: read-out: Activity
[27] = Cytotoxicity against human HEp-2 cells assessed as cell viability at 2 times of MIC incubated for 48 hrs by CCK8 assay (reference value: 100 %); type: toxicity, cell-based; details: read-out: Activity
[28] = Cytotoxicity against human HEp-2 cells assessed as cell viability at 1 time of MIC incubated for 48 hrs by CCK8 assay (reference value: 100 %); type: toxicity, cell-based; details: read-out: Activity
[29] = Cytotoxicity against human Caco-2 cells assessed as cell viability at 16 times of MIC incubated for 48 hrs by CCK8 assay (reference value: 99.54 %); type: toxicity, cell-based; details: read-out: Activity
[30] = Cytotoxicity against human Caco-2 cells assessed as cell viability at 8 times of MIC incubated for 48 hrs by CCK8 assay (reference value: 99.54 %); type: toxicity, cell-based; details: read-out: Activity
[31] = Cytotoxicity against human Caco-2 cells assessed as cell viability at 4 times of MIC incubated for 48 hrs by CCK8 assay (reference value: 99.54 %); type: toxicity, cell-based; details: read-out: Activity
[32] = Cytotoxicity against human Caco-2 cells assessed as cell viability at 2 times of MIC incubated for 48 hrs by CCK8 assay (reference value: 99.54 %); type: toxicity, cell-based; details: read-out: Activity
[33] = Cytotoxicity against human Caco-2 cells assessed as cell viability at 1 time of MIC incubated for 48 hrs by CCK8 assay (reference value: 99.54 %); type: toxicity, cell-based; details: read-out: Activity
[34] = Hemolytic activity in Kunming mouse erythrocytes measured after 1 hrs by absorbance based assay; type: toxicity, cell-based, Erythrocyte
[35] = Hemolytic activity in Kunming mouse erythrocytes assessed as hemolysis at 16 times of MIC measured after 1 hrs by absorbance based assay relative to control; type: toxicity, cell-based, Erythrocyte; details: read-out: Activity
[36] = Hemolytic activity in Kunming mouse erythrocytes assessed as hemolysis at 8 times of MIC measured after 1 hrs by absorbance based assay relative to control; type: toxicity, cell-based, Erythrocyte; details: read-out: Activity
[37] = Hemolytic activity in Kunming mouse erythrocytes assessed as hemolysis at 4 times of MIC measured after 1 hrs by absorbance based assay relative to control; type: toxicity, cell-based, Erythrocyte; details: read-out: Activity
[38] = Hemolytic activity in Kunming mouse erythrocytes assessed as hemolysis at 2 times of MIC measured after 1 hrs by absorbance based assay relative to control; type: toxicity, cell-based, Erythrocyte; details: read-out: Activity
[39] = Hemolytic activity in Kunming mouse erythrocytes assessed as hemolysis at 1 time of MIC measured after 1 hrs by absorbance based assay relative to control; type: toxicity, cell-based, Erythrocyte; details: read-out: Activity
Signal peptidase I = Signal peptidase I (Escherichia coli K-12, UniProt P00803); assay: Binding affinity to recombinant 6His-tagged Escherichia coli LepB (77 to 324 residues) extracted from Escherichia coli BL21 (DE3) cells assessed as dissociation constant by MST analysis
Sequence of Signal peptidase I (P00803 whole entry, the tested form may be a part): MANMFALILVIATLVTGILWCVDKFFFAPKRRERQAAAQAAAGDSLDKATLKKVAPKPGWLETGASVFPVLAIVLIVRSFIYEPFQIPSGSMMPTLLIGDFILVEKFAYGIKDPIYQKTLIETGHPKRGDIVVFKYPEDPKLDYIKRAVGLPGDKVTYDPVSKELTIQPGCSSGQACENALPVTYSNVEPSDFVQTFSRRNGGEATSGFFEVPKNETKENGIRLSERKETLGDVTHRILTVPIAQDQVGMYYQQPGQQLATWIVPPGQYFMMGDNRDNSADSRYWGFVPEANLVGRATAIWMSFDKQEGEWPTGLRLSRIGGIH

## COc1ccc2nc3c(c(C(=O)O)c2c1)CC(C)C/C3=C\c1cccc(-c2ccc(Cl)c(C(F)(F)F)c2)c1 (racemic)
Staphylococcus aureus [1]
  MIC: 2 µg/mL (≈ 3.72 µM)
Enterococcus faecium [2]
  MIC: 4 µg/mL (≈ 7.44 µM)
Enterococcus faecalis [3]
  MIC: 4 µg/mL (≈ 7.44 µM)
Streptococcus suis [4]
  MIC: 8 µg/mL (≈ 14.9 µM)
Staphylococcus aureus [5]
  MIC: 2 µg/mL (≈ 3.72 µM)
Staphylococcus aureus [6]
  MIC: 2 µg/mL (≈ 3.72 µM)
Staphylococcus aureus [7]
  MIC: 2 µg/mL (≈ 3.72 µM)
Staphylococcus aureus [8]
  MIC: 2 µg/mL (≈ 3.72 µM)
Staphylococcus aureus [9]
  MIC: 2 µg/mL (≈ 3.72 µM)
Enterococcus faecium [10]
  MIC: 4 µg/mL (≈ 7.44 µM)
Enterococcus faecium [11]
  MIC: 4 µg/mL (≈ 7.44 µM)
Enterococcus faecalis [12]
  MIC: 4 µg/mL (≈ 7.44 µM)
Enterococcus faecalis [13]
  MIC: 4 µg/mL (≈ 7.44 µM)
Enterococcus faecalis [14]
  MIC: 8 µg/mL (≈ 14.9 µM)
Streptococcus suis [15]
  MIC: 16 µg/mL (≈ 29.7 µM)
Streptococcus pyogenes
  MIC: 16 µg/mL (≈ 29.7 µM)
Streptococcus agalactiae
  MIC: 32 µg/mL (≈ 59.5 µM)
Escherichia coli
  MIC: > 128 µg/mL
Salmonella enteritidis
  MIC: > 128 µg/mL
Klebsiella pneumoniae
  MIC: > 128 µg/mL
Acinetobacter baumannii [16]
  MIC: > 128 µg/mL
Acinetobacter baumannii [17]
  MIC: > 128 µg/mL
Pseudomonas aeruginosa [18]
  MIC: > 128 µg/mL
Pseudomonas aeruginosa [19]
  MIC: > 128 µg/mL
Staphylococcus aureus [20]
  Activity: Dose-dependent-effect
Staphylococcus aureus [21]
  Activity: 100%
Staphylococcus aureus [22]
  Activity: Active
Staphylococcus aureus [23]
  Ratio: 4
[24]
  viability at 48 h, 16 times of MIC: 2.42%
[25]
  viability at 48 h, 8 times of MIC: 35.5%
[26]
  viability at 48 h, 4 times of MIC: 66%
[27]
  viability at 48 h, 2 times of MIC: 84.8%
[28]
  viability at 48 h, 1 time of MIC: 89.8%
[29]
  viability at 48 h, 16 times of MIC: 5.84%
[30]
  viability at 48 h, 8 times of MIC: 36.6%
[31]
  viability at 48 h, 4 times of MIC: 51.9%
[32]
  viability at 48 h, 2 times of MIC: 69.8%
[33]
  viability at 48 h, 1 time of MIC: 89.6%
[34]
  HC50 at 1 h: 25.9 µg/mL
[35]
  hemolysis at 1 h, 16 times of MIC: 63.5%
[36]
  hemolysis at 1 h, 8 times of MIC: 22.3%
[37]
  hemolysis at 1 h, 4 times of MIC: 1.8%
[38]
  hemolysis at 1 h, 2 times of MIC: 0%
[39]
  hemolysis at 1 h, 1 time of MIC: 0%

## CC1C/C(=C\c2ccc(-c3cccc(Cl)c3)o2)c2nc3ccccc3c(C(=O)O)c2C1 (racemic)
Staphylococcus aureus [1]
  MIC: 8 µg/mL (≈ 18.6 µM)
Enterococcus faecium [2]
  MIC: 16 µg/mL (≈ 37.2 µM)
Enterococcus faecalis [3]
  MIC: > 64 µg/mL
Streptococcus suis [4]
  MIC: 32 µg/mL (≈ 74.4 µM)
Signal peptidase I
  Kd: 42.1 µM
